Reference: ChEMBL document CHEMBL1146119, “Amino functionalized novel cholic acid derivatives induce HIV-1 replication and syncytia formation in T cells” (J Med Chem, 2006)
Calls of active or inactive are those of the source. No cut-off for these calls is given here.

Tested on: Human immunodeficiency virus 1
Experiment: Induction of HIV1 NL4-3 virus replication in CEM-GFP cells
Type: functional, organism-based

Compound	Activity
COC(=O)CC[C@@H](C)[C@H]1CC[C@H]2[C@@H]3[C@H](OC(C)=O)C[C@@H]4C[C@H](OC(C)=O)CC[C@]4(C)[C@H]3C[C@H](O)[C@]12C	inactive
C[C@H](CCC(=O)O)[C@H]1CC[C@H]2[C@@H]3[C@H](O)C[C@@H]4C[C@H](O)CC[C@]4(C)[C@H]3C[C@H](O)[C@]12C	inactive
COC(=O)CC[C@@H](C)[C@H]1CC[C@H]2[C@H]3[C@H]([C@H](N)[C@H](O)[C@]12C)[C@@]1(C)CC[C@@H](OC(C)=O)C[C@H]1C[C@H]3OC(C)=O	Active
COC(=O)CC[C@@H](C)[C@H]1CC[C@H]2[C@H]3[C@H]([C@@H](N=[N+]=[N-])C(=O)[C@]12C)[C@@]1(C)CC[C@@H](OC(C)=O)C[C@H]1C[C@H]3OC(C)=O	Active
COC(=O)CC[C@@H](C)[C@H]1CC[C@H]2[C@H]3[C@H]([C@@H](N)[C@@H](O)[C@]12C)[C@@]1(C)CC[C@@H](OC(C)=O)C[C@H]1C[C@H]3OC(C)=O	Active
COC(=O)CC[C@@H](C)[C@H]1CC[C@H]2[C@H]3C(=C(N)C(=O)[C@]12C)[C@@]1(C)CC[C@@H](OC(C)=O)C[C@H]1C[C@H]3OC(C)=O	Active
COC(=O)CC[C@@H](C)[C@H]1CC[C@H]2[C@H]3[C@H]([C@H](N=[N+]=[N-])C(=O)[C@]12C)[C@@]1(C)CC[C@@H](OC(C)=O)C[C@H]1C[C@H]3OC(C)=O	Active
COC(=O)CC[C@@H](C)[C@H]1CC[C@H]2[C@H]3[C@H]([C@H](N)C(=O)[C@]12C)[C@@]1(C)CC[C@@H](OC(C)=O)C[C@H]1C[C@H]3OC(C)=O	Active
